Data taken from patent US20130084328A1, “METHYLATED CODING AND NON-CODING RNA GENES AS DIAGNOSTIC AND THERAPEUTIC TOOLS FOR HUMAN MELANOMA” (Sanford-Burnham Medical Research Institute, priority 2011, published 2013).

Test system: miR-124-3a and miR-let-7i
Assay: expression and bisulfite methylation of miR-124-3a and miR-let-7i after 5-Aza-dC
Assay type: cell-based, human
Conditions: melanoma cells
Description: PCR was performed using a 6-minute hot-start at 95° C., followed by 35 cycles at 94° C. for 20 s, 54° C. for 25 s, and 72° C. for 30 s, ending with a 10-min extension at 72° C. using AmpliTaq Gold (Applied Biosystems/Life Technologies). PCR products were gel purified using the QiaQuick gel extraction kit (QIAGEN) and cloned into the pCR4-TOPO vector (Invitrogen/Life Technologies). Nine clones for each miRNA candidate and 6 clones for each patient sample were sequenced using M13 primers and the BigDye terminator kit v1.1 (Applied Biosystems/Life Technologies), analyzed on a 3130×1 Genetic Analyzer (Applied Biosystems/Life Technologies), and aligned using Vector NTi AlignX (Invitrogen/Life Technologies).

Nc1ncn([C@H]2C[C@H](O)[C@@H](CO)O2)c(=O)n1 [5AzadC, 5-aza-2′-deoxycytidine]
expression and methylation levels of miR-124-3a and miR-let-7i: not affected
